In patent US8729055B2, “Ursolic acid derivative and pharmaceutical composition thereof” (Kaohsiung Medical University, priority 2010, dated 2014):
Each block holds one compound with its values, some of them ahead of it.

What was measured:
[1] = test system: NTUB1 cells (human bladder cancer cell line); experiment: MTT cytotoxicity assay against NTUB1 cells; type: cell-based; settings: for IC50 / % of viability at the highest concentration: NTUB1 cells; for IC50: MTT, mean±SD (n=5); for % of viability at the highest concentration: given when 50% inhibition not reached at the highest concentration (30 μM); for cytotoxic activity against NTUB1 cells, in words: comparison with the parent compound, from Table 1
Experimental: In the present embodiment, cell culture and MTT assay is used for cell viability/proliferation. NTUB1, a human bladder cancer cell line, is established from a high-grade bladder cancer. […] The cells are cultured at 37° C. in a humidified atmosphere containing 5% CO2. […] Briefly, the cells are plated at a density of 1800 cells/well in 96-well plates and incubated at 37° C. overnight before drug exposure. Cells are then cultured in the presence of graded concentrations of the test compound with or without various concentrations of cisplatin (Pharmacia & Upjohn, Milan, Italy) at 37° C. for 72 h. At the end of the culture period, 50 μL of MTT (2 mg/mL in PBS) is added to each well and allowed to react for 3 h. Following centrifugation of plates at 1000 g for 10 min, media are removed and 150 μL DMSO are added to each well. The proportions of surviving cells are determined by absorbance spectrometry at 540 nm using […]) microplate reader. The cell viability is expressed as a percentage to the viable cells of control culture condition. The IC50s of each group are calculated by the […] analysis and presented as mean±standard deviation (SD). […] In Table 1, data are presented as mean±SD (n=5). […] The control cells are treated with culture medium containing 0.1% DMSO. Cisplatin is used as a positive control.

[2] = test system: rat neutrophils stimulated with PMA; experiment: Experiment B: superoxide anion formation from rat neutrophils stimulated with PMA; type: cell-based; settings: PMA (3 nM)
Experimental: This example illustrates the anti-inflammatory activities of compounds 5, 7-11, 20 and 21. The anti-inflammatory activities of compounds 5, 7-11, 20 and 21 are studied in vitro for their inhibitory effects on chemical mediators released from neutrophils, mast cells or macrophages of rat. […] In Table 2, when 50% inhibition could not be reached at the highest concentration, the percentage of inhibition at 30 μM is given. In the Experiment B, superoxide anion generation is measured in terms of superoxide dismutase-inhibitable cytochrome c reduction. Neutrophils isolated from the peripheral blood of the rats are washed and suspended in Hanks' balanced salt solution (HBSS). Neutrophil suspension is preincubated with DMSO or drugs, and then superoxide dismutase (SOD) or HBSS is added into the blank and test wells, respectively. The final volume of DMSO in the reaction mixture is ≦0.5%. After addition of cytochrome c, reaction is initiated by challenge with PMA (3 nM). Thirty minutes later, the reaction is terminated by centrifugation and the absorbance changes of supernatant are monitored at 550 nm in a microplate reader. The superoxide anion generation is measured in terms of superoxide dismutase-inhibitable cytochrome c reduction. Trifluoperazine is used as a positive control for the Experiment B.

accumulation of NO2− = experiment: Experiment A: accumulation of NO2− (Griess reaction); type: cell-based, rat; settings: for percentage of inhibition at 30 μM, A NO2−: given when 50% inhibition not reached; for IC50: inhibition of accumulation of NO2−
Experimental: (§1) This example illustrates the anti-inflammatory activities of compounds 5, 7-11, 20 and 21. The anti-inflammatory activities of compounds 5, 7-11, 20 and 21 are studied in vitro for their inhibitory effects on chemical mediators released from neutrophils, mast cells or macrophages of rat.
(§2) Please refer to Table 2, which illustrates the inhibitory effects of compounds 5, 7-11, 20 and 21 on the accumulation of NO2^− (Experiment A), superoxide anion formation (n mol/10^6 cells/30 min) from rat neutrophils stimulated with PMA (Experiment B), and the release of β-glucuronidase from rat peritoneal mast cells stimulated with compound 48/80 (Experiment C). In Table 2, when 50% inhibition could not be reached at the highest concentration, the percentage of inhibition at 30 μM is given.
In the Experiment A, Nitric oxide (NO) in the cell medium is determined by the Griess reaction, and N-(3-aminomethyl)benzylamide (1400 W) is used as a positive control.

NTUB1 cells [3] = experiment: Intracellular ROS by DCFH-DA flow cytometry in NTUB1 cells; type: cell-based, human
Experimental: As to the quantitative analysis of intracellular ROS, the flow cytometry analysis is also adopted. Cells are plated and treated as above-mentioned conditions. Ten-micromolar dichlorofluorescein diacetate (DCFH-DA; Molecular Probes, Eugene, Oreg.) is added to the treated cells 30 min prior harvest. The cells are collected by trypsinization and washed with PBS. The green fluorescence of intracellular DCF (2′,7′-dichlorofluorescein) is then analyzed immediately by FACScan flow cytometer with a 525-nm band pass filter (Becton Dickinson).

NTUB1 cells [4] = experiment: Cell cycle progression by FACS in propidium iodide-stained NTUB1 cells; type: cell-based, human
Experimental: These cells are harvested by trypsinization, washed with 1×PBS, and fixed in ice-cold MeOH at −20° C. After overnight incubation, the cells are washed with PBS and incubated with 50 μg/mL propidium iodide (Sigma, Co) and 50 μg/mL RNase A (Sigma, Co) in PBS at room temperature for 30 min. The fractions of cells in each phase of cell cycle are analyzed using FACScan flow cytometer and Cell Quest software (Becton Dickinson).

[5] = test system: rat peritoneal mast cells stimulated with compound 48/80; experiment: Experiment C: release of β-glucuronidase from rat peritoneal mast cells stimulated with compound 48/80; type: cell-based; settings: Mast cell; rat peritoneal mast cells, compound 48/80
Experimental: as §1, §2
In the Experiment C, Heparinized Tyrode's solution is injected into the peritoneal cavity of exsanguinated rat (Sprague-Dawley, 250-300 g). After abdominal massage, cells in the peritoneal fluid are harvested and then separated in 38% bovine serum albumin (BSA) in glucose-free Tyrode's solution. […] Fifteen min after the addition of compound 48/80 ([…]), β-glucuronidase (phenolphthalein-β-glucuronide as substrate, 550 nm) in the supernatant is determined. The total content of β-glucuronidase is measured after treatment of the cell suspension with Triton X-100, and the percentage release is calculated. […]

PC3 cells = experiment: MTT cytotoxicity assay against PC3 cells; type: cell-based, human; settings: 72 h
Source text: (§3) The data shown in FIGS. 4(A) to 4(C) represent mean±SD (n=3) for one experiment performed in triplicate. The symbols, “*” represents p<0.05, “**” represents p<0.01, and “***” represents p<0.001, compared to the control value, respectively.

A549 cells = experiment: MTT cytotoxicity assay against A549 cells; type: cell-based, human; settings: 72 h
Source text: as §3

[6] = 50 μM, compared across the three cell lines

Compound: COC(=O)C12CCC(C)C(C)C1C1=CCC3C4(C)CCC(=O)C(C)(C)C4CCC3(C)C1(C)CC2 (stereo not drawn) [Compound 19]
- IC50 ([1]; 72 h): 29.6 ± 4.65 µM

- IC50 ([2]; Neutrophil): 7.3 ± 0.6 µM
Compound: CN1CCN(CCCN2c3ccccc3Sc3ccc(C(F)(F)F)cc32)CC1 [trifluoperazine, reference compound]

Compound: C[C@H]1[C@H](C)CC[C@]2(C(=O)O)CC[C@]3(C)C(=CC[C@@H]4[C@@]5(C)CCC(=O)OC(C)(C)[C@@H]5CC[C@]43C)[C@H]12 [Compound 20, 4-Hydroxy-3,4-seco-ursan-12-en-28-oic acid 3,4 lactone]
- IC50 ([1]; 72 h): > 30 µM
- % of viability at the highest concentration [1]: 63.91%
- cytotoxic activity against NTUB1 cells, in words [1]: weakens cytotoxic activities
- percentage of inhibition at 30 μM, A NO2− (accumulation of NO2−): 41.0 ± 9.6%

Compound: C[C@H]1[C@H](C)CC[C@]2(C(=O)OCC(=O)OC(C)(C)C)CC[C@]3(C)C(=CC[C@@H]4[C@@]5(C)CC[C@H](O)C(C)(C)[C@@H]5CC[C@]43C)[C@H]12 [Compound 11, Tert-Butoxycarbonylmethyl 3β-hydroxyurs-12-en-28-oate]
- IC50 ([1]; 72 h): > 30 µM
- % of viability at the highest concentration [1]: 64.85%
- IC50 (accumulation of NO2−): 21.7 ± 6.5 µM

Compound: C[C@H]1[C@H](C)CC[C@]2(C(=O)O)CC[C@]3(C)C(=CC[C@@H]4[C@@]5(C)CC[C@H](O)C(C)(C)[C@@H]5CC[C@]43C)[C@H]12 [Compound 1, ursolic acid]
- IC50 ([1]; Homo sapiens, 72 h): 29.4 ± 1.9 µM

- IC50 [2]: 6.1 ± 1.9 µM
Compound: CC(C)=CCOC(=O)[C@]12CC[C@@H](C)[C@H](C)[C@H]1C1=CC[C@@H]3[C@@]4(C)CC[C@H](O)C(C)(C)[C@@H]4CC[C@@]3(C)[C@]1(C)CC2 [Compound 9, 3′-Methyl-2′-butenyl 3β-hydroxyurs-12-en-28-oate]
- IC50 ([1]; 72 h): 10.9 ± 2.01 µM
- percentage of inhibition at 30 μM, A NO2− (accumulation of NO2−): 45.2 ± 5.9%

Compound: COC(=O)[C@]12CC[C@@H](C)[C@H](C)[C@H]1C1=CC[C@@H]3[C@@]4(C)CC[C@H](O)C(C)(C)[C@@H]4CC[C@@]3(C)[C@]1(C)CC2 [Compound 2]
- IC50 ([1]; 72 h): 37.1 µM
- cytotoxic activity against NTUB1 cells, in words [1]: decreases the cytotoxic activity

Compound: CCOC(=O)C12CCC(C)C(C)C1C1=CCC3C4(C)CCC(O)C(C)(C)C4CCC3(C)C1(C)CC2 (stereo not drawn) [Compound 3]
- IC50 ([1]; 72 h): 13.5 µM

Compound: C[C@H]1[C@H](C)CC[C@]2(C(=O)O)CC[C@]3(C)C(=CC[C@@H]4[C@@](C)(CCC(=O)O)[C@H](C(C)(C)O)CC[C@]43C)[C@H]12 [Compound 22, 3,4-seco-Ursan-4-hydroxy-12-en-3,28-dioic acid]
- IC50 ([1]; 72 h): > 30 µM
- % of viability at the highest concentration [1]: 56.04%
- cytotoxic activity against NTUB1 cells, in words [1]: weakens cytotoxic activities

Compound: C[C@H]1[C@H](C)CC[C@]2(C(=O)OCCO)CC[C@]3(C)C(=CC[C@@H]4[C@@]5(C)CC[C@H](O)C(C)(C)[C@@H]5CC[C@]43C)[C@H]12 [Compound 10, 2′-Hydroxyethyl 3β-hydroxyurs-12-en-28-oate]
- IC50 ([1]; 72 h): 19.5 µM
- cytotoxic activity against NTUB1 cells, in words [1]: attenuate the cytotoxicity
- percentage of inhibition at 30 μM, A NO2− (accumulation of NO2−): 33.1 ± 7.2%

Compound: N-(3-aminomethyl)benzylamide [1400 W, reference compound]
- IC50 (accumulation of NO2−): 5 ± 1.5 µM

- IC50 [2]: 11.5 ± 0.9 µM
Compound: CCCCCCOC(=O)[C@]12CC[C@@H](C)[C@H](C)[C@H]1C1=CC[C@@H]3[C@@]4(C)CC[C@H](O)C(C)(C)[C@@H]4CC[C@@]3(C)[C@]1(C)CC2 [Compound 8, Hexyl 3β-hydroxyurs-12-en-28-oate]
- IC50 ([1]; 72 h): 26.2 ± 2.51 µM

Compound: N.N.[Cl][Pt][Cl] [cisplatin, reference compound]
- IC50 ([1]; 72 h): 3.27 ± 0.1 µM
- intracellular ROS (NTUB1 cells [3]; 10 μM, 24 h, effect inhibited by NAC): significant increase in intracellular ROS
- intracellular ROS (NTUB1 cells [3]; 10 μM, 48 h, effect not inhibited by NAC): significant increase in intracellular ROS
- effect on cell cycle progression (NTUB1 cells [4]; 10 μM, 48 h): S phase arrest
- effect on cell cycle progression (NTUB1 cells [4]; 10 and 20 μM, 24 h): dose dependent accumulation of cells in the G1 phase with a concomitant increase in the population of sub-G1 phase

- IC50 [5]: 12.4 ± 1.6 µM
Compound: CCN(CC)CCCC(C)Nc1c2ccc(Cl)cc2nc2ccc(OC)cc12 (stereo not drawn) [mepacrine, reference compound]

Compound: CC1CCC2(C(=O)O)CCC3(C)C(=CCC4C5(C)CCC(=O)C(C)(C)C5CCC43C)C2C1C (stereo not drawn) [Compound 18]
- IC50 ([1]; 72 h): 21.4 ± 15.5 µM
- cytotoxic activity against NTUB1 cells, in words [1]: increases cytotoxicities

Compound: CC(C)OC(=O)[C@]12CC[C@@H](C)[C@H](C)[C@H]1C1=CC[C@@H]3[C@@]4(C)CC[C@H](O)C(C)(C)[C@@H]4CC[C@@]3(C)[C@]1(C)CC2 [Compound 5, Isopropyl 3β-hydroxyurs-12-en-28-oate]
- cytotoxic effect at 50 μM, NTUB1 cells ([1]; 50 μM, 72 h, compared across the three cell lines): same cytotoxic effect
- IC50 ([1]; 72 h): 7.97 ± 0.48 µM
- cytotoxic effect at 50 μM, PC3 cells (PC3 cells; [6]): same cytotoxic effect
- cytotoxic effect against PC3 cells compared with NTUB1 cells (PC3 cells; MTT, FIG. 4): do not exhibit stronger cytotoxic effects
- cytotoxic effect at 50 μM, A549 cells (A549 cells; [6]): same cytotoxic effect
- cytotoxic effect against A549 cells compared with NTUB1 cells (A549 cells; MTT, FIG. 4): do not exhibit stronger cytotoxic effects
- percentage of inhibition at 30 μM, A NO2− (accumulation of NO2−): 45.3 ± 7.0%
- intracellular ROS (NTUB1 cells [3]; 40 μM, 24 h, effect inhibited by NAC): significant increase in intracellular ROS
- intracellular ROS (NTUB1 cells [3]; 20 and 40 μM, 48 h, effect not inhibited by NAC): significant increase in intracellular ROS
- effect on cell cycle progression (NTUB1 cells [4]; 20-40 μM, 48 h): arrests G2/M phase before accumulation of cells in sub-G1 phase
- effect on cell cycle progression (NTUB1 cells [4]; 20 and 40 μM (20-40 μM), 24 h): induces G1 phase arrest in a dose-dependent manner
- apoptotic cell death (NTUB1 cells [4]; 20 and 40 μM, 24 h): increase in the apoptotic cell death

- IC50 [2]: 10.8 ± 2.2 µM
Compound: CCCCCOC(=O)[C@]12CC[C@@H](C)[C@H](C)[C@H]1C1=CC[C@@H]3[C@@]4(C)CC[C@H](O)C(C)(C)[C@@H]4CC[C@@]3(C)[C@]1(C)CC2 [Compound 7, Pentyl 3β-hydroxyurs-12-en-28-oate]
- IC50 ([1]; 72 h): 27.8 ± 1.63 µM
- percentage of inhibition at 30 μM, A NO2− (accumulation of NO2−): 29.8 ± 3.3%
